The record followed here is patent US20150290171A1, “METHODS FOR THE TREATMENT OF BONE LOSS” (CELGENE CORPORATION, priority 2012, published 2015).

In general, IC50 refers to the concentration that gives 50% inhibition. Low values mean higher potency, high ones lower potency.

One assay concerns BMP-6 gene expression. The assay is described as follows: BMP-6 gene expression in OCL cultures (RT-PCR). The class given is cell-based, human. The note with it: FIG. 5.
Another assay deals with RANK gene expression. The settings on record: OCL cultures.
The next assay deals with sRANKL/OPG protein ratio. Put plainly: OBL culture, sRANKL/OPG protein ratio. In kind it is cell-based, human. The procedure:
(§1) Normal human OBL (nHOST, Lonza) were grown using OBL basal medium containing 10% fetal bovine serum, ascorbic acid, and gentamicin/amphotericin-B (Lonza). Cells were grown to a density of 5×10^5 cells/mL. Compounds were added and the final concentration of dimethyl sulfoxide (DMSO) was 0.25%. Plates were incubated at 5% CO2, 37° C. for 7 days, changing media every 3 days and adding fresh compound. The supernatant was collected for analysis of RANKL (USCNK Life Science Inc), OPG (R&D Systems), and SOST (R&D Systems) by enzyme-linked immunosorbent assay (ELISA). Cells were stained for ALP.

The test system of assay [1] is sRANKL protein. The assay is described as follows: OBL culture, sRANKL protein in supernatant (ELISA). In kind it is cell-based, human. The note with it: 7 days; for reduction of sRANKL protein levels: OBL; for effect on sRANKL protein levels: OBL supernatants. The method, then: as §1
In general terms: ELISA stands for enzyme-linked immunosorbent assay.

Assay [2] has as its system sRANKL protein. Put plainly: sRANKL protein levels in OCL cultures. The class given is cell-based, human.
Assay [3] has as its system RAW 264.7 mouse macrophages. Put plainly: OCL pit formation. The settings on record: RAW 264.7 cells with RANKL 50 ng/mL, FIG. 6 and 7. In kind it is cell-based.
The next assay deals with OPG protein. The assay is described as follows: OBL culture, OPG protein in supernatant (ELISA). In kind it is cell-based, human. The settings on record: 0.1 μM. The method, then:
as §1

The test system of assay [4] is Phosphodiesterase 4 enzyme. Put plainly: Inhibition of PDE4 (enzyme purified from U937 cells, [3H]-cAMP). The class given is biochemical. The note with it: PDE4 from U937 human monocytic cells, 1 μM cAMP, 45 min at 30° C. The method, then:
Phosphodiesterase 4 enzyme was purified from U937 human monocytic cells by gel filtration chromatography, and phosphodiesterase reactions were carried out as previously described. See, e.g., Muller et al., Bioorg. Med. Chem. Lett., 1998, 8(19): 2669-2674. Briefly, reactions were carried out in 96-well deep-well plates in 50 mM Tris HCl pH 7.5, 5 mM MgCl2, 1 μM cyclic adenosine monophosphate (cAMP), plus 10 nM [^3H]-cAMP for 45 min at 30° C. The reactions were terminated by boiling, treated with 1 mg/ml snake venom, and separated using AG-1X8 ion exchange resin (BioRad). Reactions consumed less than 15% of available substrate.

The next assay has as its system SOST protein. The assay is described as follows: OCY differentiation, SOST protein levels (ELISA). The class given is cell-based, human. The method, then:
(§2) OBL were differentiated into OCY using hydroxyapatite/tricalcium phosphate biphasic calcium phosphate ceramic particles (Graftys BCP), which were placed into polycarbonate filter well inserts, and the cell culture media was changed every 3 days for a total of 28 days. Gene expression was measured by quantitative RT-PCR for the following: RANK, RANKL, SOST, OPG, mothers against decapentaplegic homolog 1 (SMAD1), collagen 9A2 (COL9A2), vascular endothelial growth factor C (VEGFC), and fibroblast growth factor receptor 1 (FGFR1). Protein production was measured by ELISA.

A further assay concerns sRANKL. The assay is described as follows: OCY differentiation, sRANKL production (ELISA). In kind it is cell-based, human. The procedure:
as §2

Assay [5] deals with Human bone marrow mononuclear cells differentiated into OCL. The assay is described as follows: OCL differentiation (osteoclastogenesis), number of TRAP-5+ cells. In kind it is cell-based. The settings on record: OCL cultures, 7 days.

Where two headings read alike, the source gives them in different places.

Method for RANK gene expression: Human bone marrow mononuclear cells were differentiated into OCL using 10 nM dexamethasone and 10 nM vitamin D for 7 days. APR (0.1-10 μM) was added with fresh medium on days 0 and 3. […] OCL were lysed and RNA was isolated and converted to cDNA. Reverse transcription polymerase chain reaction (RT-PCR) was performed to measure gene expression of RANK and bone morphogenetic protein 6 (BMP-6).

For the compound `CCOc1cc([C@@H](CS(C)(=O)=O)N2C(=O)c3cccc(NC(C)=O)c3C2=O)ccc1OC` [(+)-2-[1-(3-ethoxy-4-methoxyphenyl)-2-methanesulfonylethyl]-4-acetylaminoisoindolin-1,3-dione], the “effect on BMP-6 gene expression” value in the assay on BMP-6 gene expression is recorded as “increase of BMP-6 gene expression”. The entries for the “inhibition of RANK gene expression” value with RANK gene expression (1 μM) and with RANK gene expression (10 μM) were 30% and 25%, respectively. Further, the “decrease of sRANKL/OPG protein ratio” value worked out at 39% in the assay with sRANKL/OPG protein ratio (0.1 μM), 32% in the assay on sRANKL/OPG protein ratio (1 μM) and 40% in the assay on sRANKL/OPG protein ratio (10 μM). For the same compound, the “reduction of sRANKL protein levels” value is 25% with sRANKL protein [1] (1 μM); 25% in the assay with sRANKL protein [1] (10 μM); 25% with sRANKL protein [2] (0.1 μM); 21% in the assay with sRANKL protein [2] (1 μM); 38% in the assay on sRANKL protein [2] (10 μM). In addition, the “effect on OCL pit formation” value in [3] is recorded as “inhibition of OCL pit formation”. The “increase of OPG protein levels” value in the assay with OPG protein was found to be 42%. In addition, half-maximal inhibition in [4] (IC50) was put at 73.5 nM. In addition, the “reduction of SOST protein levels” value in the assay with SOST protein (0.1 μM) was determined as 16%; in the assay on SOST protein (1 μM), 20%; in the assay on SOST protein (10 μM) it was 14%. The “reduction of sRANKL production” value with sRANKL (0.1 μM) is reported as 18%; with sRANKL (1 μM), 14%; in the assay on sRANKL (10 μM), 17%. In addition, the “reduction of number of TRAP-5+ cells” value is given as 21% in [5] (0.1 μM), 49% in assay [5] (1 μM) and 73% in assay [5] (10 μM).

On to `NCCCC(O)(P(=O)(O)O)P(=O)(O)O` [Alendronate, alendronate, reference compound], for which the “inhibition of RANK gene expression” value in the assay with RANK gene expression (10 μM) amounted to 77%. Besides, the “effect on sRANKL/OPG ratio” value in the assay on sRANKL/OPG protein ratio (10 μM) is “no effect”. The “effect on sRANKL protein levels” value in the assay on sRANKL protein [1] (10 μM) is recorded as “no significant effect”.

Regarding `COc1ccc(C2CNC(=O)C2)cc1OC1CCCC1` (stereo not drawn) [Rolipram, rolipram, reference compound], the “effect on sRANKL/OPG ratio” value with sRANKL/OPG protein ratio (10 μM) is recorded as “no effect”. In the assay on sRANKL protein [1] (10 μM), the “effect on sRANKL protein levels” value is “no significant effect”.

Consider `O=C(O)c1cc(/N=N/c2ccc(S(=O)(=O)Nc3ccccn3)cc2)ccc1O` [sulfasalazine, reference compound], for which the “effect on sRANKL/OPG ratio” value in the assay on sRANKL/OPG protein ratio (30 μM) is reported as “no effect”. Moreover, the “effect on sRANKL protein levels” value in the assay on sRANKL protein [1] (30 μM) is given as “no significant effect”.
